The nature of data set [1]: Pharmacokinetic study in rats, intravenous Y101 with or without PRO. The format is in vivo, Sprague–Dawley (SD) rats. The following applies: for Tmax / half-life / AUC(0-inf) / AUC(0-t) / Cmax / Vd / clearance / C0: male, Sprague-Dawley, rat, plasma, iv, 25 mg/kg; for Tmax / half-life / AUC(0-inf) / AUC(0-t) / Cmax / Vd / C0: n = 3; for clearance: n = 3, read-out: CLp (plasma clearance) (converted). Here is the method:
The effect of PRO on the pharmacokinetics of Y101 was studied in rats. Male rats surgically prepared with indwelling jugular cannula were randomly divided into two groups (n = 3): (1) Y101 alone (25 mg/kg) as a control and (2) Y101 + PRO (25 mg/kg for Y101 and 100 mg/kg for PRO) as an experimental group. The intravenous dose of Y101 was prepared as previously described. Both Y101 and PRO were injected by caudal vein to rats at volume of 5 mL/kg.
Following administration, serial blood samples were collected through jugular vein pre-dose (0 h) and post-dose at 0.033, 0.083, 0.25, 0.5, 1, 1.5, 2, 3, 4, 6, 9, 12, 24 and 30 h in heparinized Eppendorf tubes. The resulting samples were centrifuged at 13,800× g at 4 °C for 5 min to obtain plasma. All plasma samples were stored at −70 °C until analysis.
Biological samples were prepared as previously described.
Non-compartmental analysis with Phenix WinNonlin (version 8.1; Pharsight, Certara Corp, Princeton, NJ) was used to calculate the main pharmacokinetic parameters of ETV, Y101, M8 and M9 for individual rats. The observed values were reported for maximum concentration (Cmax) and time to reach maximum concentration (Tmax), while the area under the plasma concentration–time curve (AUC) was calculated via the default trapezoidal-up, log-trapezoidal-down approach.

In the next data set the test system is rat kidney slices. The data set is described as follows: In vitro uptake assay in kidney slices. The format is in vitro ADME. As to conditions: for time and temperature dependence of uptake in kidney slices: 37 °C vs 4 °C, M9 1.0 µM, 5 to 30 min. Here is the method:
The renal cortex was cut into 300 µm slices with a ZQP-86 tissue slicer (Shanghai Zhisun Equipment Co., Ltd., Shanghai, China; surface area 0.15 cm^2). […] Next, the kidney slices were prepared as previously described. Two slices per well were placed into 37 °C buffer filled with oxygen for pre-incubation for 3 min and then gently moved into a 24-well cell culture plate containing 1 mL oxygenated buffer at 4 °C or 37 °C. The uptakes of ETV (10 µM), Y101 (2.0 µM), M8 (5.0 µM) and M9 (1.0 µM) were measured at 5, 10, 15 and 30 min after the treatment, respectively. […] Following incubation at the designated time, kidney slices were collected, rinsed with ice-cold buffer three times, and dried on filter paper. After weighing and homogenization (IKA-T 10 homogenizer; IKA, Staufen, Germany), the concentrations of Y101, M8, M9 and ETV of kidney slice homogenates were determined as in the description below.
Biological samples were prepared as previously described. Aliquots (50 µL) of urine, plasma, kidney homogenates, or cell lysates were individually mixed with 150 µL methanol and 50 µL working solution of internal standard (acetaminophen or bestatin), followed by vortexing for 1 min and centrifuging at 13,800 g for 10 min. […] The resulting supernatant (1 µL) was subjected to LC-MS/MS for the assessment of Y101, M8, M9 and ETV, respectively. […] The concentrations of ETV, Y101, M8 and M9 were determined by an AB QTRAP 5500 LC–MS/MS System (Foster City, CA, USA) as previously described. Chromatographic separation was achieved on an Infinitylab Poroshell 120 EC-C18 (50 mm × 2.1 mm, 2.7 µm, Agilent Technology Inc., CA, USA) at 40 °C. The mobile phase consisted of formic acid-acetonitrile (0.05:100, v/v) and a mixture of 1 mmol-ammonium acetate-acetonitrile-formic acid (95:5:0.05, v/v/v) at a flow rate of 0.3 mL/min. […] Analyst1.5.2 software was used for data processing and analysis.

Details of data set [2]: method as in PMID 32277364. The following applies: healthy Chinese subjects, oral administration of Y101; cited from earlier work.
The mark [3] stands for this setting: i.v. Y101 25 mg/kg + PRO 100 mg/kg vs Y101 alone.
Setting [4] is: i.v. Y101 25 mg/kg + PRO 100 mg/kg.
The mark [5] stands for this setting: ETV 10 µM, Y101 2.0 µM, M8 5.0 µM.

Structures are written as SMILES. Where two headings read alike, the source gives them in different places.

What is called Tmax is the time from dosing to the highest level. Broadly, the half-life is the time needed for the level to fall by half in the phase considered. In general, AUC(0-inf) refers to total exposure, with the tail of the curve extrapolated. As a reminder, the AUC(0-t) is the area under the concentration-time curve up to a stated or last time point. A word on the Cmax: it is the maximum level reached in the sampled fluid or tissue. On to `CN(C)CCOc1ccc(CC(NC(=O)c2ccccc2)C(=O)O)cc1` (centres unmarked) [M8], for which, in data set [1] (setting [3]), the “elevation in AUC value on co-administration of PRO” value was determined as 163% and the “increase in Cmax value on co-administration of PRO” value was found to be 2.6 fold. For the same compound, in data set [1] (setting [4]), the Tmax is 30 min, the half-life was 207 min, the total exposure AUC(0-inf) is 21900 ng·h/mL and the AUC(0-t) was 21900 ng·h/mL. The Cmax in data set [1] (setting [4]) was found to be 10100 ng/mL. Moreover, in data set [1] (i.v. Y101 25 mg/kg alone), the AUC(0-inf) turned out to be 8360 ng·h/mL, the AUC(0-t) came to 8300 ng·h/mL, the Cmax is 3890 ng/mL and the Tmax worked out at 40 min. For the same compound, the half-life in data set [1] (i.v. Y101 25 mg/kg alone) was 244 min. Moreover, the “time and temperature dependence of uptake in kidney slices” value in the data set with rat kidney slices (Y101 2.0 µM, M8 5.0 µM) is reported as “temperature-dependent”. Moreover, the “effect on the uptake of ETV in kidney slices” value in the data set on rat kidney slices (setting [5]) was “not affected”. In data set [2], the renal excretion was 27.2 % of the dose.
The term Vd denotes the apparent volume that relates the amount in the body to the concentration in plasma or blood. For orientation: clearance means the rate of elimination divided by the concentration. Take `CN(C)CCOc1ccc(C[C@H](NC(=O)c2ccccc2)C(=O)N[C@H](CO)Cc2ccccc2)cc1.Cl` [Y101, N-[N-benzoyl-O-(2-dimethylaminoethyl)-l-tyrosyl]-l-phenylalaninol hydrochloride]: in data set [1] (setting [4]), the Vd was determined as 12.5 L/kg, the half-life was 42.4 min, the clearance was 207 mL/min/kg and the AUC(0-inf) was found to be 2030 ng·h/mL. For the same compound, in data set [1] (setting [4]), the AUC(0-t) came to 2020 ng·h/mL and the C0 came to 15800 ng/mL. In data set [1] (i.v. Y101 25 mg/kg alone), this compound showed an AUC(0-inf) of 2860 ng·h/mL, an AUC(0-t) of 2840 ng·h/mL, a C0 of 16000 ng/mL and a Vd of 10.2 L/kg. Moreover, in data set [1] (i.v. Y101 25 mg/kg alone), the half-life is 47.9 min and the clearance is 149 mL/min/kg. In the data set on rat kidney slices (Y101 2.0 µM, M8 5.0 µM), the “time and temperature dependence of uptake in kidney slices” value is “time- and temperature-dependent”. In the data set with rat kidney slices (setting [5]), the “effect on the uptake of ETV in kidney slices” value is listed as “not affected”. Further, the renal excretion in data set [2] is 2.98 % of the dose.
In the case of `C=C1[C@H](CO)[C@@H](O)C[C@@H]1n1cnc2c(=O)[nH]c(N)nc21` [ETV, entecavir], in the data set with rat kidney slices (M8 5.0 µM, PCG 0.2 and 0.5 mM, PRO 0.1 mM, PAH 0.2 and 0.5 mM, TEA 0.2 mM, 10 min, ETV 10 µM), the “inhibition of the uptake of M8 in kidney slices” value is “significantly inhibited the uptake of M8”. Moreover, the “inhibition of the uptake of Y101 in kidney slices” value in the data set on rat kidney slices (Y101 2.0 µM, PCG 0.2 and 0.5 mM, PRO 0.1 mM, PAH 0.2 and 0.5 mM, TEA 0.2 mM, 10 min, ETV 10 µM) was “did not show any inhibitory effects”.

Source of the values: PMC9967645, “OAT3 Participates in Drug–Drug Interaction between Bentysrepinine and Entecavir through Interactions with M8—A Metabolite of Bentysrepinine—In Rats and Humans In Vitro” (Molecules, 2023).
